The text below walks through data of patent publication US20240246964A1 (Arbutus Biopharma Corporation, priority 2021, published 2024).

For one test, the target named is human PD-L1 (Homo sapiens (Human), UniProt Q9NZQ7). As to the kind of experiment: T cell activation luciferase reporter cell culture system (T Cell Activation Assay). Format: cell-based. The settings on record: luciferase reporter assay; PD-L1 aAPC/CHO-K1 cells with PD-1 effector Jurkat T cells. On the technique in general: In a reporter assay the amount or activity of a reporter protein is the signal.

The target in test [1] is PD-L1 His protein / PD-1 Fc protein (Homo sapiens (Human), UniProt Q9NZQ7). As to the kind of experiment: HTRF Assay (PD-1/PD-L1 interaction). Format: binding. The settings on record: PD-L1 His 6 nM, PD-1 Fc 6 nM. For orientation: In TR-FRET formats the signal depends on donor and acceptor labels being close together.
PD-L1 His protein / PD-1 Fc protein, sequence (Q9NZQ7 19-238): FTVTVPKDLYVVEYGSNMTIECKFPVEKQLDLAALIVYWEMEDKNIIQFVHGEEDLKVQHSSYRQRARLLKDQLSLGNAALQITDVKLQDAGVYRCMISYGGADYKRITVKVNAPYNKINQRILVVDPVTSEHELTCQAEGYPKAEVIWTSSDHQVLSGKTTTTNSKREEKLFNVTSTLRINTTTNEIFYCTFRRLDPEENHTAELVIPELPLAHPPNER

human PD-L1, sequence (Q9NZQ7 19-290): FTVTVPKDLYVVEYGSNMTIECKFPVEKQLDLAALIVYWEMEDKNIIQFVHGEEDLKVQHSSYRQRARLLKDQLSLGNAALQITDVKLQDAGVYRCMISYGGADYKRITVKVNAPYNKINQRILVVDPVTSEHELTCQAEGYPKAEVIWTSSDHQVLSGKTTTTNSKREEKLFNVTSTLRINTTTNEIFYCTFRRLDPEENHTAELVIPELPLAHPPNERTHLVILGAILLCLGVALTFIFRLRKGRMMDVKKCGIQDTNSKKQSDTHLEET

Regarding `COc1nc(-c2ccnc(-c3cccc(NC(=O)c4ccc(CNCCO)cn4)c3C)c2Cl)ccc1CNC[C@@H]1CCC(=O)N1` [Example 771, (S)—N-(3-(3′-chloro-6-methoxy-5-((((5-oxopyrrolidin-2-yl)methyl)amino)methyl)-[2,4′-bipyridin]-2′-yl)-2-methylphenyl)-5-(((2-hydroxyethyl)amino)methyl)picolinamide], a half-maximal effect at human PD-L1 (EC50) was put at 28.7 nM. Further, in test [1], half-maximal inhibition (IC50) required 0.03 nM.
The corresponding values for `COc1cc(-c2nccc(-c3cccc(-c4ccc(CNC[C@@H]5CCC(=O)N5)c(OC)n4)c3Cl)c2C)ccc1CNC[C@@H]1CCC(=O)N1` [Example 414, (S)-5-((((6-(2-Chloro-3-(2-(3-methoxy-4-(((((S)-5-oxopyrrolidin-2-yl)methyl)amino)methyl)phenyl)-3-methylpyridin-4-yl)phenyl)-2-methoxypyridin-3-yl)methyl)amino)methyl)pyrrolidin-2-one] are 29.4 nM and 1.58 nM.
The matching figures for `COc1cc(-c2nccc(-c3cccc(-c4ccc(CN5CC6(CNC(=O)C6)C5)c(OC)n4)c3Cl)c2Cl)cnc1CNC1CCN(C(C)=O)CC1` [Compound 547, 2-((6-(3-(6′-(((1-acetylpiperidin-4-yl)amino)methyl)-3-chloro-5′-methoxy-[2,3′-bipyridin]-4-yl)-2-chlorophenyl)-2-methoxypyridin-3-yl)methyl)-2,6-diazaspiro[3.4]octan-7-one]: 69.2 nM and 0.35 nM.
The corresponding values for `COc1nc(-c2cccc(-c3ccnc(-c4ccc5c(c4)CCCC5NC[C@@H]4CCC(=O)N4)c3Cl)c2Cl)ccc1CNC[C@@H]1CCC(=O)N1` (mixture of isomers) [Compound 112, (5S)-5-((((6-(2-chloro-3-(3-chloro-2-(5-((((S)-5-oxopyrrolidin-2-yl)methyl)amino)-5,6,7,8-tetrahydronaphthalen-2-yl)pyridin-4-yl)phenyl)-2-methoxypyridin-3-yl)methyl)amino)methyl)pyrrolidin-2-one] are 50.5 nM and 1 nM.
As for `COc1cc(-c2nccc(-c3cccc(-c4ccc(CN5CC6(CNC(=O)C6)C5)c(OC)n4)c3Cl)c2Cl)cc(F)c1CN1CC2(CNC(=O)C2)C1` [Example 287, 2-((6-(2-Chloro-3-(3-chloro-2-(3-fluoro-5-methoxy-4-((7-oxo-2,6-diazaspiro[3.4]octan-2-yl)methyl)phenyl)pyridin-4-yl)phenyl)-2-methoxypyridin-3-yl)methyl)-2,6-diazaspiro[3.4]octan-7-one], the midpoint of the response on human PD-L1, the EC50, lay at 16.4 nM. For the same compound, the IC50 (in general, the point on the concentration scale where inhibition reaches its midpoint) in test [1] is 4.67 nM.
Regarding `CNCc1ccc(-c2cccc(-c3ccnc(-c4ccc(CNCCC(=O)OC(C)C)c(OC)c4)c3Cl)c2Cl)nc1OC` [Example 279, Isopropyl 3-((4-(3-chloro-4-(2-chloro-3-(6-methoxy-5-((methylamino)methyl)pyridin-2-yl)phenyl)pyridin-2-yl)-2-methoxybenzyl)amino)propanoate], at human PD-L1, the response was half-maximal at 224 nM (EC50). Also, the IC50 in test [1] stood at 12.4 nM.
The matching figures for `COc1nc(-c2cccc(-c3ccnc(-c4ccc5c(CNCC(C)(C)O)cn(C)c5c4)c3Cl)c2Cl)ccc1CNC[C@@H]1CCC(=O)N1` [Compound 36, (S)-5-((((6-(2-chloro-3-(3-chloro-2-(3-(((2-hydroxy-2-methylpropyl)amino)methyl)-1-methyl-1H-indol-6-yl)pyridin-4-yl)phenyl)-2-methoxypyridin-3-yl)methyl)amino)methyl)pyrrolidin-2-one]: 82.1 nM and 3.4 nM.
The corresponding values for `COc1nc(-c2cccc(-c3ccnc(-c4ccc5c(c4)CNC5)c3Cl)c2Cl)ccc1CN1CC2(CNC(=O)C2)C1` [Compound 230, 2-((6-(2-chloro-3-(3-chloro-2-(isoindolin-5-yl)pyridin-4-yl)phenyl)-2-methoxypyridin-3-yl)methyl)-2,6-diazaspiro[3.4]octan-7-one] are 392 nM and 10.8 nM.
For the compound `COc1nc(-c2cccc(-c3ccnc(-c4ccc5c(CN6CC[C@H](C(=O)O)C6)nn(C)c5c4)c3Cl)c2Cl)ccc1CNC[C@@H]1CCC(=O)N1` [Example 309, (S)-1-((6-(3-Chloro-4-(2-chloro-3-(6-methoxy-5-(((((S)-5-oxopyrrolidin-2-yl)methyl)amino)methyl)pyridin-2-yl)phenyl)pyridin-2-yl)-1-methyl-1H-indazol-3-yl)methyl)pyrrolidine-3-carboxylic acid], the EC50 (usually the concentration that produces a half-maximal response) on human PD-L1 stood at 75 nM. In test [1], this compound yielded an IC50 of 0.3 nM.
The matching figures for `COc1cc(-c2nccc(-c3cccc(-c4ccc(CNC[C@@H]5CCC(=O)N5)c(OC)n4)c3Cl)c2Cl)cc(F)c1CNC[C@@H]1CCO1` [Compound 181, (S)-5-((((6-(2-chloro-3-(3-chloro-2-(3-fluoro-5-methoxy-4-(((((S)-oxetan-2-yl)methyl)amino)methyl)phenyl)pyridine-4-yl)phenyl)-2-methoxypyridin-3-yl)methyl)amino)methyl)pyridine1335ne-2-one]: 30.5 nM and 11.2 nM.
The matching figures for `COc1cc(-c2nccc(-c3cccc(NC(=O)c4ccc(CNCCO)cn4)c3C)c2Cl)ccc1CNC1CCOCC1` [Example 703, N-(3-(3-Chloro-2-(3-methoxy-4-(((tetrahydro-2H-pyran-4-yl)amino)methyl)phenyl)pyridin-4-yl)-2-methylphenyl)-5-(((2-hydroxyethyl)amino)methyl)picolinamide]: 146 nM and 0.14 nM.
The matching figures for `COc1nc(-c2cccc(-c3ccnc(-c4cc5c(=O)n(C)c(CN6CC7(CC(O)C7)C6)nn5c4)c3Cl)c2Cl)ccc1CNC[C@@H]1CCC(=O)N1` [Compound 48, (S)-6-(3-chloro-4-(2-chloro-3-(6-methoxy-5-((((5-oxopyrrolidin-2-yl)methyl)amino)methyl)pyridin-2-yl)phenyl)pyridin-2-yl)-2-((6-hydroxy-2-azaspiro[3.3]heptan-2-yl)methyl)-3-methylpyrrolo[2,1-f][1,2,4]triazin-4(3H)-one]: 18.7 nM and 0.04 nM.
Consider `COc1nc(-c2cccc(-c3ccnc(-c4ccc5c(c4)CNC5)c3Cl)c2Cl)ccc1CNC[C@@H]1CCC(=O)N1` [Compound 116, (S)-5-((((6-(2-chloro-3-(3-chloro-2-(isoindolin-5-yl)pyridin-4-yl)phenyl)-2-methoxypyridin-3-yl)methyl)amino)methyl)pyrrolidin-2-one], for which, at human PD-L1, the midpoint of the response, the EC50, lay at 64.9 nM. In test [1], this compound yielded an IC50 of 0.9 nM.
The matching figures for `COc1cc(-c2nccc(-c3cccc(-c4ccc5c(CNC6CCOCC6)cn(C)c5n4)c3Cl)c2Cl)ccc1CN1CC2(CNC(=O)C2)C1` [Compound 605, 2-(4-(3-Chloro-4-(2-chloro-3-(1-methyl-3-(((tetrahydro-2H-pyran-4-yl)amino)methyl)-1H-pyrrolo[2,3-b]pyridin-6-yl)phenyl)pyridin-2-yl)-2-methoxybenzyl)-2,6-diazaspiro[3.4]octan-7-one]: 636 nM and 0.34 nM.
The matching figures for `COc1cc(-c2nccc(-c3cccc(-c4ccc(CNC5CCN(C(=O)c6ccco6)CC5)c(OC)n4)c3Cl)c2Cl)ccc1CNC1CCN(C(=O)c2ccco2)CC1` [Example 421, (4-(((6-(2-Chloro-3-(3-chloro-2-(4-(((1-(furan-2-carbonyl)piperidin-4-yl)amino)methyl)-3-methoxyphenyl)pyridin-4-yl)phenyl)-2-methoxypyridin-3-yl)methyl)amino)piperidin-1-yl)(furan-2-yl)methanone]: 47.7 nM and 1.86 nM.
The matching figures for `COc1cc(-c2nccc(-c3cccc(-c4ccc(CN5CC6(C5)CN(C(C)=O)C6)c(OC)n4)c3C)c2C)ccc1CN1CC2(C1)CN(C(C)=O)C2` [Example 416, 1-(6-((6-(3-(2-(4-((6-Acetyl-2,6-diazaspiro[3.3]heptan-2-yl)methyl)-3-methoxyphenyl)-3-methylpyridin-4-yl)-2-methylphenyl)-2-methoxypyridin-3-yl)methyl)-2,6-diazaspiro[3.3]heptan-2-yl)ethan-1-one]: at least 10000 nM and 6.6 nM.
Regarding `COc1cc(-c2nccc(-c3cccc(-c4ccc(CN5CC6(C5)CN(C(C)=O)C6)c(OC)n4)c3Cl)c2Cl)ccc1CNC1CCN(C(C)=O)CC1` [Example 483, 1-(4-((4-(4-(3-(5-((6-acetyl-2,6-diazaspiro[3.3]heptan-2-yl)methyl)-6-methoxypyridin-2-yl)-2-chlorophenyl)-3-chloropyridin-2-yl)-2-methoxybenzyl)amino)piperidin-1-yl)ethan-1-one], at human PD-L1, the EC50 came to 39.7 nM. Besides, the IC50 in test [1] stood at 2.63 nM.
The matching figures for `COc1cc(-c2nccc(-c3cccc(-c4ccc5c(CNCCO)cn(C)c5n4)c3Cl)c2Cl)ccc1CNC1CCN(C(C)=O)CC1` [Example 559, 1-(4-((4-(3-Chloro-4-(2-chloro-3-(3-(((2-hydroxyethyl)amino)methyl)-1-methyl-1H-pyrrolo[2,3-b]pyridin-6-yl)phenyl)pyridin-2-yl)-2-methoxybenzyl)amino)piperidin-1-yl)ethan-1-one]: 73.2 nM and 1.61 nM.
`COc1nc(-c2cccc(-c3ccnc(-c4cc(OC)c5nc(CN[C@H]6C[C@](C)(O)C6)cn5c4)c3Cl)c2Cl)ccc1CNC[C@@H]1CCC(=O)N1` [Example 312, (S)-5-((((6-(2-chloro-3-(3-chloro-2-(2-((((1r,3r)-3-hydroxy-3-methylcyclobutyl)amino)methyl)-8-methoxyimidazo[1,2-a]pyridin-6-yl)pyridin-4-yl)phenyl)-2-methoxypyridin-3-yl)methyl)amino)methyl)pyrrolidin-2-one] yielded an EC50 on human PD-L1 of 178 nM. In test [1], this compound came in with an IC50 of 0.813 nM.
The corresponding values for `COc1nc(-c2cccc(-c3ccnc(-c4ccc(CNC5CCN(C(C)=O)CC5)c(OC(F)F)c4)c3Cl)c2Cl)ccc1CN1CC2(CNC(=O)C2)C1` [Example 665, 2-((6-(3-(2-(4-(((1-Acetylpiperidin-4-yl)amino)methyl)-3-(difluoromethoxy)phenyl)-3-chloropyridin-4-yl)-2-chlorophenyl)-2-methoxypyridin-3-yl)methyl)-2,6-diazaspiro[3.4]octan-7-one] are 46.3 nM and 0.6 nM.
